According to patent publication US12077503B2, “Substituted cyclic amides and their use as herbicides” (FMC CORPORATION, priority 2015, dated 2024):

Key:
Assay type in all cases: in vivo
[1] = system: giant foxtail (Setaria faberii); test: Test A preemergence; details: Setaria faberi, pre-emergence, 240 h, 0 to 100 scale where 0 is no effect and 100 is complete control, read-out: Foxtail, Giant plant response rating
Summary of the method: (§1)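 Greenhouse, ~10 d after spray; visual injury vs untreated controls, 0 = no effect, 100 = complete control. Preemergence: directed soil spray over planted seeds. Postemergence: plants 2–10 cm, 1–2 leaf stage. Loam/sand blend. Compound in non-phytotoxic solvent with surfactant.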

Kochia (Kochia scoparia) [2] = test: Test A preemergence; details: Bassia scoparia, pre-emergence, 240 h, 0 to 100 scale where 0 is no effect and 100 is complete control, read-out: Kochia plant response rating
Summary of the method: as §1

[3] = system: pigweed (Amaranthus retroflexus); test: Test A preemergence; details: Amaranthus retroflexus, pre-emergence, 240 h, 0 to 100 scale where 0 is no effect and 100 is complete control, read-out: Pigweed plant response rating
[4] = system: ragweed (common ragweed, Ambrosia elatior); test: Test A preemergence; details: Ambrosia artemisiifolia, pre-emergence, 240 h, 0 to 100 scale where 0 is no effect and 100 is complete control, read-out: Ragweed plant response rating
Summary of the method: as §1

[5] = system: barnyardgrass (Echinochloa crus-galli); test: Test A preemergence; details: Echinochloa crus-galli, pre-emergence, 240 h, 0 to 100 scale where 0 is no effect and 100 is complete control, read-out: Barnyardgrass plant response rating
Summary of the method: as §1

[6] = system: ryegrass, Italian (Italian ryegrass, Lolium multiflorum); test: Test A preemergence; details: Lolium multiflorum, pre-emergence, 240 h, 0 to 100 scale where 0 is no effect and 100 is complete control, read-out: Ryegrass, Italian plant response rating
Summary of the method: as §1

rice (Oryra sativa) = test: Test B flooded paddy test; details: Oryza sativa, 250 g ai/ha, Flood; 0 to 100 scale where 0 is no effect and 100 is complete control; read-out: Rice plant response rating
Summary of the method: (§2)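 Evaluation by eye, against controls, occurred 13–15 d post-treatment in a greenhouse, using a 0 (no effect) to 100 (complete control) scale. Application was into the paddy water, 3 cm deep over the soil, on 2-leaf plants.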

[7] = system: sedge, umbrella (small-flower umbrella sedge, Cyperus difformis); test: Test B flooded paddy test; details: Cyperus difformis, 250 g ai/ha, Flood; 0 to 100 scale where 0 is no effect and 100 is complete control; read-out: Sedge, Umbrella plant response rating
Summary of the method: as §2

[8] = system: ducksalad (Heteranthera limosa); test: Test B flooded paddy test; details: Heteranthera limosa, 250 g ai/ha, Flood; 0 to 100 scale where 0 is no effect and 100 is complete control; read-out: Ducksalad plant response rating
Summary of the method: as §2

[9] = system: barnyardgrass (Echinochloa crus-galli); test: Test B flooded paddy test; details: Echinochloa crus-galli, 250 g ai/ha, Flood; 0 to 100 scale where 0 is no effect and 100 is complete control; read-out: Barnyardgrass plant response rating
Summary of the method: as §2

[10] = system: giant foxtail (Setaria faberii); test: Test A postemergence; details: Setaria faberi, post-emergence, 240 h, Postemergence, read-out: Foxtail, Giant plant response rating (0 to 100 scale)
Summary of the method: as §1

Kochia (Kochia scoparia) [11] = test: Test A postemergence; details: Bassia scoparia, post-emergence, 240 h, Postemergence, read-out: Kochia plant response rating (0 to 100 scale)
Summary of the method: as §1

[12] = system: pigweed (Amaranthus retroflexus); test: Test A postemergence; details: Amaranthus retroflexus, post-emergence, 240 h, Postemergence, read-out: Pigweed plant response rating (0 to 100 scale)
Summary of the method: as §1

[13] = system: ragweed (common ragweed, Ambrosia elatior); test: Test A postemergence; details: Ambrosia artemisiifolia, post-emergence, 240 h, Postemergence, read-out: Ragweed plant response rating (0 to 100 scale)
Summary of the method: as §1

[14] = system: Galium (catchweed bedstraw, Galium aparine); test: Test A postemergence; details: Galium, post-emergence, 240 h, Postemergence, read-out: Galium plant response rating (0 to 100 scale)
Summary of the method: as §1

corn (Zea mays) = test: Test A postemergence; details: Zea mays, post-emergence, 240 h, Postemergence, read-out: Corn plant response rating (0 to 100 scale)
Summary of the method: as §1

[15] = system: barnyardgrass (Echinochloa crus-galli); test: Test A postemergence; details: Echinochloa crus-galli, post-emergence, 240 h, Postemergence
Summary of the method: as §1

[16] = system: blackgrass (Alopecurus myosuroides); test: Test A postemergence; details: Alopecurus myosuroides, post-emergence, 240 h, Postemergence, read-out: Blackgrass plant response rating (0 to 100 scale)
Summary of the method: as §1

[17] = system: wheat (Triticum aestivum); test: Test A postemergence; details: Triticum aestivum, post-emergence, 240 h, Postemergence, read-out: Wheat plant response rating (0 to 100 scale)
Summary of the method: as §1

[18] = system: ryegrass, Italian (Italian ryegrass, Lolium multiflorum); test: Test A postemergence; details: Lolium multiflorum, post-emergence, 240 h, Postemergence, read-out: Ryegrass, Italian plant response rating (0 to 100 scale)
Summary of the method: as §1

[19] = 125 g ai/ha, preemergence, visual injury rating, approximately 10 d
[20] = 125 g ai/ha, visual rating about 10 d after treatment
[21] = 31 g ai/ha, 0 is no effect, 100 is complete control

SMILES: O=C(Nc1ccc(F)c(F)c1F)[C@H]1C(=O)N(CC(F)F)C[C@@H]1c1cccc(C(F)(F)F)c1 [Compound 1297]
- pest or weed control at 31 g/ha ([1]; 31 g ai/ha, Preemergence): 0%
- pest or weed control at 125 g/ha [1, 19]: 80%
- pest or weed control at 31 g/ha (Kochia (Kochia scoparia) [2]; 31 g ai/ha, Preemergence): 0%
- pest or weed control at 125 g/ha (Kochia (Kochia scoparia) [2]; [19]): 0%
- pest or weed control at 31 g/ha ([3]; 31 g ai/ha, Preemergence): 0%
- pest or weed control at 125 g/ha [3, 19]: 0%
- pest or weed control at 31 g/ha ([4]; 31 g ai/ha, Preemergence): 0%
- pest or weed control at 125 g/ha [4, 19]: 0%
- pest or weed control at 31 g/ha ([5]; 31 g ai/ha, Preemergence): 20%
- pest or weed control at 125 g/ha [5, 19]: 20%
- pest or weed control at 31 g/ha ([6]; 31 g ai/ha, Preemergence): 0%
- pest or weed control at 125 g/ha [6, 19]: 0%
- pest or weed control at 250 g/ha (rice (Oryra sativa)): 30%
- pest or weed control at 250 g/ha [7]: 0%
- pest or weed control at 250 g/ha [8]: 0%
- pest or weed control at 250 g/ha [9]: 0%
- pest or weed control at 125 g/ha [10, 20]: 20%
- pest or weed control at 31 g/ha [10, 21]: 0%
- pest or weed control at 125 g/ha (Kochia (Kochia scoparia) [11]; [20]): 0%
- pest or weed control at 31 g/ha (Kochia (Kochia scoparia) [11]; [21]): 0%
- pest or weed control at 125 g/ha [12, 20]: 0%
- pest or weed control at 31 g/ha [12, 21]: 0%
- pest or weed control at 125 g/ha [13, 20]: 0%
- pest or weed control at 31 g/ha [13, 21]: 0%
- pest or weed control at 125 g/ha [14, 20]: 0%
- pest or weed control at 31 g/ha [14, 21]: 0%
- plant injury at 125 g/ha (corn (Zea mays); [20]): 0%
- plant injury at 31 g/ha (corn (Zea mays); [21]): 0%
- pest or weed control at 125 g/ha ([15]; 125 g ai/ha, visual rating about 10 d after treatment, read-out: Barnyardgrass plant response rating (0 to 100 scale, 0 no effect, 100 complete control)): 20%
- pest or weed control at 31 g/ha ([15]; 31 g ai/ha, 0 is no effect, 100 is complete control, read-out: Barnyardgrass plant response rating (0 to 100 scale)): 0%
- pest or weed control at 125 g/ha [16, 20]: 0%
- pest or weed control at 31 g/ha [16, 21]: 0%
- plant injury at 125 g/ha [17, 20]: 0%
- plant injury at 31 g/ha [17, 21]: 0%
- pest or weed control at 125 g/ha [18, 20]: 0%
- pest or weed control at 31 g/ha [18, 21]: 0%
